This is an account of results in patent US6215002A, “Pyrrolopyrrolone derivatives as inhibitors of neutrophil elastase” (priority 1996, dated 2001).

As a reminder, the IC50 is the point on the concentration scale where inhibition reaches its midpoint.

Structures can show the parent of a compound that is named as a salt.

For this experiment, the target named is T1, human neutrophil elastase (Homo sapiens, UniProt P08246).
T1 sequence (P08246 30-267): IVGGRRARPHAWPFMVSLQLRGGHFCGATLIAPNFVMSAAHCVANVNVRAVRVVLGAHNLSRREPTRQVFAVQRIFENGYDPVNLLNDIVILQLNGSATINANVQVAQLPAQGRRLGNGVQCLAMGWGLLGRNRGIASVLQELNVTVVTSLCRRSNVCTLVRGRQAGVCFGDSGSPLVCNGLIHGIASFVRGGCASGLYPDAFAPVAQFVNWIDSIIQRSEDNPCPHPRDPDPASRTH
The experiment in a line: In vitro assay of human neutrophil elastase (HNE). It counts as biochemical. Particulars: 118 nM purified human neutrophil elastase, pH 8.6, 15 min incubation at 30° C., MeO-succinyl-alanyl-alanyl-prolyl-valyl-p-nitroanilide substrate; read-out: HNE IC50. An outline of the steps: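 Residual activity was taken as the 10 min rate of absorbance rise at 405 nm after adding 0.6 mM MeO-succinyl-AAPV-p-nitroanilide. Curve fitting of activity against concentration gave IC50.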
Regarding `CCC[C@H]1C(=O)N(S(C)(=O)=O)[C@H]2CCN(C(=O)CCCN3CCN(C)CC3)[C@H]12` (relative stereo) [Example 82, rel-(3R,3aR,6aS)-1-Methanesulfonyl-4-[4-(4-methyl-piperazin-1-yl)-butyryl]-3-propyl-hexahydro-pyrrolo[3,2-b]pyrrol-2-one dihydrochloride], the half-maximal inhibitory concentration (IC50) was found to be 0.162 µM.
Consider `CCC[C@H]1C(=O)N(S(C)(=O)=O)[C@H]2CCN(C(=O)CCCN(CC)CC)[C@H]12` (relative stereo) [Example 83, rel-(3R,3aR,6aS)-4-(4-Diethylamino-butyryl)-1-methanesulfonyl-3-propyl-hexahydro-pyrrolo[3,2-b]pyrrol-2-one DL-tartrate], for which the IC50 turned out to be 0.198 µM.
Next, `CCC[C@H]1C(=O)N(S(C)(=O)=O)[C@H]2CCN(C(=O)CCCN3CCC3)[C@H]12` (relative stereo) [Example 84, rel-(3R,3aR,6aS)-4-(4-Azetidin-1-yl-butyryl)-1-methanesulfonyl-3-propyl-hexahydro-pyrrolo[3,2-b]pyrrol-2-one DL-tartrate]: 0.134 µM; `CCC[C@H]1C(=O)N(S(C)(=O)=O)[C@H]2CCN(C(=O)CCCN(C)C)[C@H]12` (relative stereo) [Example 85, rel-(3R,3aR,6aS)-4-(4-Dimethylamino-butyryl)-1-methanesulfonyl-3-propyl-hexahydro-pyrrolo[3,2-b]pyrrol-2-one DL-tartrate]: 0.182 µM.
Next, `CCC[C@H]1C(=O)N(S(C)(=O)=O)[C@H]2CCN(C(=O)CCCN3CCCCCC3)[C@H]12` (relative stereo) [Example 86, hydrochloride]: 0.103 µM; `CCC[C@H]1C(=O)N(S(C)(=O)=O)[C@H]2CCN(C(=O)CCCN3CCCCC3)[C@H]12` (relative stereo) [Example 87, rel-(3R,3aR,6aS)-1-Methanesulfonyl-4-(4-piperidin-1-yl-butyryl)-3-propyl-hexahydro-pyrrolo[3,2-b]pyrrol-2-one DL-tartrate]: 0.096 µM.
On to `CCC[C@H]1C(=O)N(S(C)(=O)=O)[C@H]2CCN(C(=O)CCCN(C)c3ccccc3)[C@H]12` (relative stereo) [Example 88, rel-(3R,3aR,6aS)-1-Methanesulfonyl-4-[4-(methyl-phenyl-amino)-butyryl]-3-propyl-hexahydro-pyrrolo[3,2-b]pyrrol-2-one hydrochloride], for which the IC50 was 0.075 µM.
Next, `CCC[C@H]1C(=O)N(S(C)(=O)=O)[C@H]2CCN(C(=O)CCCN3CCCC3)[C@H]12` (relative stereo) [Example 89, rel-(3R,3aR,6aS)-1-Methanesulfonyl-3-propyl-4-(4-pyrrolidin-1-yl-butyryl)-hexahydro-pyrrolo[3,2-b]pyrrol-2-one hydrochloride]: 0.183 µM; `CCC[C@H]1C(=O)N(S(C)(=O)=O)[C@H]2CCN(C(=O)CCN(C)C)[C@H]12` (relative stereo) [Example 90, rel-(3R,3aR,6aS)-4-(3-Dimethylamino-propionyl)-1-methanesulfonyl-3-propyl-hexahydro-pyrrolo[3,2-b]pyrrol-2-one hydrochloride]: 0.305 µM.
As for `CCC[C@H]1C(=O)N(S(C)(=O)=O)[C@H]2CCN(C(=O)CCN(CC)CC)[C@H]12` (relative stereo) [Example 91, rel-(3R,3aR,6aS)-4-(3-Diethylamino-propionyl)-1-methanesulfonyl-3-propyl-hexahydro-pyrrolo-3,2-b]pyrrol-2-one hydrochloride], the half-inhibitory concentration (IC50) was found to be 0.064 µM.
Next, `CCC[C@H]1C(=O)N(S(C)(=O)=O)[C@H]2CCN(C(=O)CCN3C(C)CCCC3C)[C@H]12` (relative stereo) [Example 92, rel-(3R,3aR,6aS)-4-[3-(2,6-Dimethyl-piperidin-1-yl)-propionyl]-1-methanesulfonyl-3-propyl-hexahydro-pyrrolo[3,2-b]pyrrol-2-one hydrochloride]: 0.07 µM.
As to `CCC[C@H]1C(=O)N(S(C)(=O)=O)[C@H]2CCN(C(=O)CCN3CCCC3)[C@H]12` (relative stereo) [Example 93, rel-(3R,3aR,6aS)-1-Methanesulfonyl-3-propyl-4-(3-pyrrolidin-1-yl-propionyl)-hexahydro-pyrrolo[3,2-b]pyrrol-2-one hydrochloride], the IC50 amounted to 0.089 µM.
Next, `CCC[C@H]1C(=O)N(S(C)(=O)=O)[C@H]2CCN(C(=O)CCN3CCN(C)CC3)[C@H]12` (relative stereo) [Example 94, rel-(3R,3aR,6aS)-1-Methanesulfonyl-4-[3-(4-methyl-piperazin-1-yl)-propionyl]-3-propyl-hexahydro-pyrrolo[3,2-b]pyrrol-2-one dihydrochloride]: 0.081 µM; `CCC[C@H]1C(=O)N(S(C)(=O)=O)[C@H]2CCN(C(=O)CCC(N)=O)[C@H]12` (relative stereo) [Example 95, rel-4-(4-Methanesulfonyl-5-oxo-6R-propyl-hexahydro-(3aS,6aR)-pyrrolo[3,2-b]pyrrol-1-yl)-4-oxo-butyramide]: 0.084 µM; `CCC[C@H]1C(=O)N(S(C)(=O)=O)[C@H]2CCN(C(=O)CCNC(C)=O)[C@H]12` (relative stereo) [Example 96, rel-N-[3-(4-Methanesulfonyl-5-oxo-6R-propyl-hexahydro-(3aS,6aR)-pyrrolo[3,2-b]pyrrol-1-yl)-3-oxo-propyl]-acetamide]: 0.134 µM.
Consider `CCC[C@H]1C(=O)N(S(C)(=O)=O)[C@H]2CCN(C(=O)CCN3CCC3)[C@H]12` (relative stereo) [Example 97, rel-(3R,3aR,6aS)-4-(3-Azetidin-1-yl-propionyl)-1-methanesulfonyl-3-propyl-hexahydro-pyrrolo[3,2-b]pyrrol-2-one hydrochloride], for which the half-maximal inhibitory concentration (IC50) came out at 0.202 µM.
On to `CCC[C@H]1C(=O)N(S(C)(=O)=O)[C@H]2CCN(C(=O)CCN3CCC(C(N)=O)CC3)[C@H]12` (relative stereo) [Example 98, rel-(3R,3aR,6aS)-1-[3-(4-Methanesulfonyl-5-oxo-6-propyl-hexahydro-pyrrolo[3,2-b]pyrrol-1-yl)-3-oxo-propyl]-piperidine-4-carboxylic acid amide hydrochloride], for which the IC50 turned out to be 0.159 µM.
With `CCC[C@H]1C(=O)N(S(C)(=O)=O)[C@H]2CCN(C(=O)CCN3CCCCCC3)[C@H]12` (relative stereo) [Example 99, hydrochloride], the IC50 came to 0.079 µM.
In the case of `CCC[C@H]1C(=O)N(S(C)(=O)=O)[C@H]2CCN(C(=O)CN3CCCCC3)[C@H]12` (relative stereo) [Example 100, rel-(3R,3aR,6aS)-1-Methanesulfonyl-4-(piperidin-1-yl-acetyl)-3-propyl-hexahydro-pyrrol[3,2-b]pyrrol-2-one hydrochloride], the IC50 came out at 0.65 µM.
Next, `CCC[C@H]1C(=O)N(S(C)(=O)=O)[C@H]2CCN(C(=O)CN(CC)CC)[C@H]12` (relative stereo) [Example 101, rel-(3R,3aR,6aS)-4-Diethylaminoacetyl-1-methanesulfonyl-3-propyl-hexahydro-pyrrolo[3,2-b]pyrrol-2-one hydrochloride]: 0.169 µM; `CCC[C@H]1C(=O)N(S(C)(=O)=O)[C@H]2CCN(C(=O)CN(C)C)[C@H]12` (relative stereo) [Example 102, rel-(3R,3aR,6aS)-4-Dimethylaminoacetyl-1-methanesulfonyl-3-propyl-hexahydro-pyrrolo[3,2-b]pyrrol-2-one hydrochloride]: 0.091 µM; `CCC[C@H]1C(=O)N(S(C)(=O)=O)[C@H]2CCN(C(=O)CN(C)c3ccccc3)[C@H]12` (relative stereo) [Example 103, rel-(3R,3aR,6aS)-1-Methanesulfonyl-4-[(methyl-phenyl-amino)-acetyl]-3-propyl-hexahydro-pyrrolo[3,2-b]pyrrol-2-one hydrochloride]: 0.104 µM.
Next, `CCC[C@H]1C(=O)N(S(C)(=O)=O)[C@H]2CCN(C(=O)CN3CCCCCC3)[C@H]12` (relative stereo) [Example 104, rel-(3R,3aR,6aS)-4-Azepin-1-yl-acetyl)-1-methanesulfonyl-3-propyl-hexahydro-pyrrolo[3,2-b]pyrrol-2-one hydrochloride]: 0.574 µM; `CCC[C@H]1C(=O)N(S(C)(=O)=O)[C@H]2CCN(C(=O)CN3CCN(C)CC3)[C@H]12` (relative stereo) [Example 105, rel-(3R,3aR,6aS)-1-Methanesulfonyl-4-[(4-methyl-piperazin-1-yl)-acetyl]-3-propyl-hexahydro-pyrrolo[3,2-b]pyrrol-2-one hydrochloride]: 0.193 µM; `CCC[C@H]1C(=O)N(S(C)(=O)=O)[C@H]2CCN(C(=O)CN3CCOCC3)[C@H]12` (relative stereo) [Example 107, rel-(3R,3aR,6aS)-1-Methanesulfonyl-4-morpholin-4-yl-acetyl)-3-propyl-hexahydro-pyrrolo[3,2-b]pyrrol-2-one hydrochloride]: 0.143 µM.
Next, `CCC[C@H]1C(=O)N(S(C)(=O)=O)[C@H]2CCN(C(=O)CN3CCCC3)[C@H]12` (relative stereo) [Example 108, hydrochloride]: 0.481 µM.
On to `CCC[C@H]1C(=O)N(S(C)(=O)=O)[C@H]2CCN(C(=O)CN)[C@H]12` (relative stereo) [Example 109, rel-(3R,3aR,6aS)-4-Aminoacetyl-1-methanesulfonyl-3-propyl-hexahydro-pyrrolo[3,2-b]pyrrol-2-one trifluoroacetate], for which the IC50 was found to be 0.096 µM.
Next, `CCC[C@H]1C(=O)N(S(C)(=O)=O)[C@H]2CCN(C(=O)CNC)[C@H]12` (relative stereo) [Example 110, rel-(3R,3aR,6aS)-1-Methanesulfonyl-4-methylaminoacetyl-3-propyl-hexahydro-pyrrolo[3,2-b]pyrrol-2-one trifluoroacetate]: 0.136 µM.
